# Test results as given in the Deep4Chem optical property database.
# Values joined by “and” are separate entries in the source; they are usually repeats but may differ in a detail not shown here. Equal values may be shown once.
# Assay: solvent given as SMILES
smiles,measurement,setting,value
COc1cccc(/C=C/c2ccccc2)c1,emission maximum,in C1CCCCC1,358 nm
same,emission maximum,in CC#N,359 nm
same,emission maximum,in CC(C)O,357 nm
same,emission maximum,in CCCCOCCCC,358 nm
same,emission maximum,in CCOC(C)=O,358 nm
same,emission maximum,in CCOCC,357 nm
c1ccc(Cc2c3ccc(=[N+]4CCCCC4)cc-3oc3cc(N4CCCCC4)ccc23)cc1,emission maximum,in ClCCl,582 nm
COc1cccc(-c2[nH]c(=O)n3c2-c2ccccc2C3=O)c1O,emission maximum,in CC#N,478 nm
same,emission maximum,in CO,496 nm
same,emission maximum,in ClCCl,471 nm
O=C(O)CCCCCn1c2ccccc2c(=O)c2cc(Br)ccc21,emission maximum,in O,432 nm
CC1=CC(C)=[N+]2C1=C(c1ccc(N(C)C)cc1)c1c(C)cc(C)n1[B-]2(F)F,emission maximum,in C1CCOC1,513 nm
same,emission maximum,in CC#N,508 nm
same,emission maximum,in CC(=O)C(C)(C)C,511 nm
same,emission maximum,in CC(C)=O,510 nm
same,emission maximum,in CCCCCC,511 nm
same,emission maximum,in CCOC(C)=O,510 nm
same,emission maximum,in CO,514 nm and 511 nm
COC(=O)c1ccc(/C=C2\C=C(c3ccc([N+](=O)[O-])cc3)OC2=O)cc1,emission maximum,in C1COCCO1,493 nm
Cc1ccc(-n2c(-c3ccccc3NS(=O)(=O)c3ccc(C)cc3)nc3c4ccccc4c4ccccc4c32)cc1,emission maximum,in Cc1ccccc1,365 nm
CCn1c2ccccc2c2ccc(-c3ccc(OC)cc3)cc21,emission maximum,in C1CCCCC1,383 nm
CN1c2cc3nc4cc(F)c(F)cc4nc3cc2N(C)C1(C)C,emission maximum,in CCO,488 nm
CCCCCCOc1cc(N(CC)CC)ccc1/C=C(\C#N)c1ccc(/C=C/C(=C(C#N)C#N)c2ccc(N(c3ccccc3)c3ccccc3)cc2)s1,emission maximum,in ClCCl,750 nm
COc1ccc(-c2c3ccccc3c(-c3ccc(OC)cc3)c3ccccc23)cc1,emission maximum,in ClCCl,427 nm
CCCCCCN1C(=O)c2cccc3c(-c4cccs4)ccc(c23)C1=O,emission maximum,in ClC(Cl)Cl,465 nm
Cc1cn(CCCn2cc(C)c(=O)[nH]c2=O)c(=O)nc1-n1cncn1,emission maximum,in O,382 nm
COc1ccc(-c2nc(C)cc(-c3ccc(-n4c5ccccc5c5ccccc54)cc3)n2)cc1,emission maximum,in C1CCOC1,418 nm
same,emission maximum,in CN(C)C=O,453 nm
same,emission maximum,in Cc1ccccc1,390 nm
same,emission maximum,in ClC(Cl)Cl,421 nm
CCCCCCCCCCCCN1C(=O)c2c(c3ccc4cc(-c5ccc(C=O)cc5)c(OC)cc4c3c3c2ccc2cc(-c4ccc(C=O)cc4)c(OC)cc23)C1=O,emission maximum,in ClCCl,523 nm
CCCC1(CCC)c2ccccc2-c2ccc(-c3ccc4c(c3)C(CCC)(CCC)c3cc(-c5ccc6c(c5)C(CCC)(CCC)c5ccccc5-6)ccc3-4)cc21,emission maximum,in C1CCCCC1,396 nm
CCOC(=O)c1c(-c2c(Cl)c3ccccc3oc2=O)nn(-c2cccc(C)c2)c1C(=O)OCC,emission maximum,in ClCCl,410 nm
Cc1ccccc1-c1c2ccc(=[N+]3CCCCC3)cc-2oc2cc(N3CCCCC3)ccc12,emission maximum,in CCO,584 nm
same,emission maximum,in ClCCl,582 nm
CCCCC1(CCCC)c2cc(C#Cc3ccc(C=C4c5ccccc5-c5ccccc54)cc3)ccc2-c2ccc(C#Cc3ccc(C=C4c5ccccc5-c5ccccc54)cc3)cc21,emission maximum,in C1CCOC1,406 nm
O=[N+]([O-])c1ccc([N+]2=Cc3ccc4c5c(ccc4c3O[B-]2(c2ccccc2)c2ccccc2)C=[N+](c2ccc([N+](=O)[O-])cc2)[B-](c2ccccc2)(c2ccccc2)O5)cc1,emission maximum,in Cc1ccccc1,643 nm
same,emission maximum,in ClCCl,642 nm
c1cc2ccc3cc4[nH]ccc4c4ccc(c1)c2c34,emission maximum,in CCOC(C)=O,398 nm
C1=Cc2ccccc2C(=Cc2ccc(-c3cc(-c4ccc(C=C5c6ccccc6C=Cc6ccccc65)cc4)cc(-c4ccc(C=C5c6ccccc6C=Cc6ccccc65)cc4)c3)cc2)c2ccccc21,emission maximum,in C1CCOC1,405 nm
CCOC(=O)c1cc(C(=O)OCC)c2ccc(O)cc2n1,emission maximum,in CCO,474 nm
CC(C)(C)[Si](C)(C)c1ccc([Si](C)(C)C(C)(C)C)c2ccccc12,emission maximum,in C1CCCCC1,335 nm
COc1ccc(-c2oc3cccc4c5c(-c6ccc(OC)c(OC)c6)c(=N)oc6cccc(c2c34)c65)cc1OC,emission maximum,in ClC(Cl)Cl,510 nm
Oc1ccccc1-c1nc2c3ccccc3c3ccccc3c2n1-c1ccccc1,emission maximum,in Cc1ccccc1,369 nm
Cc1c2ccncc2c(C)c2c1[nH]c1ccccc12,emission maximum,in C1CCCCC1,392 nm
same,emission maximum,in C1CCOC1,413 nm
same,emission maximum,in C1COCCO1,410 nm
same,emission maximum,in CC#N,420 nm
same,emission maximum,in CC(C)(C)O,420 nm
same,emission maximum,in CC(C)O,424 nm
same,emission maximum,in CCC(C)(C)O,419 nm
same,emission maximum,in CCCCCC,390 nm
same,emission maximum,in CCCCO,427 nm
same,emission maximum,in CCO,429 nm
same,emission maximum,in CCOC(C)=O,410 nm
same,emission maximum,in CCOCC,405 nm
same,emission maximum,in CN(C)C=O,425 nm
same,emission maximum,in CO,434 nm
same,emission maximum,in CS(C)=O,428 nm
same,emission maximum,in Cc1ccccc1,403 nm
Cc1cc(C)c(B2c3cc(C(C)(C)C)cc4ccc5ccc6cc(C(C)(C)C)cc2c6c5c34)c(C)c1,emission maximum,in C1CCCCC1,430 nm
CC(C)(C)c1ccc(Oc2cc3c4c(cc(Oc5ccc(C(C)(C)C)cc5)c5c6c(Oc7ccc(C(C)(C)C)cc7)cc7c8c(cc(Oc9ccc(C(C)(C)C)cc9)c(c2c45)c86)C(=O)N(c2ccccc2)C7=O)C(=O)N(c2ccccc2)C3=O)cc1,emission maximum,in ClC(Cl)Cl,617 nm
c1ccc2c(c1)CCc1ccccc1N2c1c2ccccc2cc2ccccc12,emission maximum,in Cc1ccccc1,507 nm
Cc1sc(Cl)cc1-c1nc(-c2ccccc2)[nH]c1-c1cc(Cl)sc1C,emission maximum,in CC#N,381 nm
CC(=O)c1ccc(C#Cc2ccc3c(N(C)C)cc(-c4ccccc4)cc3c2)cc1,emission maximum,in ClCCl,577 nm
COc1ccc2c(c1)N(c1ccccc1-c1ccccc1)c1cc3c(cc1=N2)Oc1c(cc(C(C)(C)C)cc1C(C)(C)C)N=3,emission maximum,in CC#N,619 nm
same,emission maximum,in CCCCCC,583 nm
same,emission maximum,in CO,636 nm
COC(=O)c1nc2c(N(C)C)nc(N(C)C)nc2n1Cc1ccccc1,emission maximum,in C1COCCO1,402 nm
same,emission maximum,in CC#N,415 nm
same,emission maximum,in CO,432 nm
same,emission maximum,in ClCCl,409 nm
F[Si-](F)(c1ccccc1)(c1ccccc1)c1c2ccccc2cc2ccccc12,emission maximum,in C1CCOC1,399 nm
Cc1ccccc1C1CC(=O)Oc2c1c1nc3ccccc3nc1c1ccccc21 (stereo not drawn),emission maximum,in ClC(Cl)Cl,434 nm
CN(C)c1ccc(-c2nc(-c3ccc(N(C)C)cc3)c3ccccc3n2)cc1,emission maximum,in C1CCCCC1,436 nm
same,emission maximum,in C1CCOC1,528 nm
same,emission maximum,in CC#N,571 nm
same,emission maximum,in CS(C)=O,575 nm
same,emission maximum,in ClCCl,530 nm
COC(=O)c1[nH]c(-c2ccc(OC)cc2)c2nnc3ccc(OC)cc3c12,emission maximum,in ClCCl,504 nm
c1ccc2cc3cc(-c4cc(-c5nccs5)nc(-c5nccs5)c4)ccc3cc2c1,emission maximum,in CC#N,474 nm
same,emission maximum,in CCCCCC,376 nm
same,emission maximum,in CO,377 nm
same,emission maximum,in ClC(Cl)Cl,452 nm
O=Cc1cc(N2CCCCC2)c2ccc3c(N4CCCCC4)cc(N4CCCCC4)c4ccc1c2c43,emission maximum,in C1COCCO1,557 nm
same,emission maximum,in CC#N,596 nm
same,emission maximum,in CC(C)=O,581 nm
same,emission maximum,in CCCCCC,520 nm
same,emission maximum,in CCO,635 nm
same,emission maximum,in CCOC(C)=O,562 nm
same,emission maximum,in CO,643 nm
same,emission maximum,in CS(C)=O,601 nm
same,emission maximum,in Cc1ccccc1,554 nm
same,emission maximum,in ClCCl,597 nm
CCCCCCN(CCCCCC)c1ccc(C#Cc2ccc([N+](=O)[O-])cc2)cc1,emission maximum,in CO,630 nm
same,emission maximum,in ClCCl,618 nm
C#CCNC1=C2C(C)=CC(C)=[N+]2[B-](F)(F)n2c(C)cc(C)c21,emission maximum,in C1CCCCC1,501.5 nm
same,emission maximum,in CC(C)=O,496 nm
same,emission maximum,in CCOC(C)=O,497 nm
same,emission maximum,in CO,496 nm
same,emission maximum,in OCC(F)(F)F,494.5 nm
CC(C)(C)c1ccc2c(c1)c1cc(C(C)(C)C)ccc1n2-c1ccc(C#Cc2cccc(C#Cc3ccc(-n4c5ccc(C(C)(C)C)cc5c5cc(C(C)(C)C)ccc54)cc3)c2)cc1,emission maximum,in CC#N,435 nm
same,emission maximum,in CCCCC,359 nm
same,emission maximum,in CO,426 nm
same,emission maximum,in Cc1ccccc1,379 nm
same,emission maximum,in ClC(Cl)Cl,400 nm
same,emission maximum,in ClCCl,416 nm
CCCN1/C(=C/C=C/C=C/C2=[N+](CCC)c3ccccc3C2(C)C)C(C)(C)c2ccccc21,emission maximum,in CO,659 nm
same,emission maximum,in CS(C)=O,660 nm
same,emission maximum,in O,652 nm
CC(C)[Si](C#Cc1c2ccccc2c(C#C[Si](C(C)C)(C(C)C)C(C)C)c2nc3c4ccccc4c(=O)c4ccccc4c3nc12)(C(C)C)C(C)C,emission maximum,in ClCCl,544 nm
O=C(O)COc1cccc(-c2c3nc(cc4ccc([nH]4)c(-c4cccc(OCC(=O)O)c4)c4nc(cc5ccc2[nH]5)CC4)CC3)c1,emission maximum,in CS(C)=O,738 nm
Fc1ccc(C#Cc2c(C#Cc3ccc(F)cc3)c(C#Cc3ccc(F)cc3)c(C#Cc3ccc(F)cc3)c(C#Cc3ccc(F)cc3)c2C#Cc2ccc(F)cc2)cc1,emission maximum,in ClCCl,450 nm
CC(C)c1cccc(C(C)C)c1N1C(=O)c2cccc3c(Oc4ccc(Cl)cc4)ccc(c23)C1=O,emission maximum,in ClCCl,423 nm
Oc1ccccc1/C=N/c1ccccc1/N=C/c1ccccc1O,emission maximum,in CC#N,545 nm and 458 nm
CCN(CC)c1ccc(-c2cc3c(s2)c(C(=O)OC)cc(=O)n3C)cc1,emission maximum,in C1CCOC1,543 nm
same,emission maximum,in CC#N,605 nm
same,emission maximum,in CCO,516 nm
same,emission maximum,in CN(C)C=O,604 nm
same,emission maximum,in CO,503 nm
same,emission maximum,in CS(C)=O,615 nm
same,emission maximum,in Cc1ccccc1,504 nm
same,emission maximum,in ClC(Cl)Cl,545 nm
same,emission maximum,in ClCCl,562 nm
CC(C)(C)c1ccc(-n2c(-c3ccc(-c4ccc(N(c5ccccc5)c5ccccc5)cc4)cc3)nc3c4ccccc4c4ccccc4c32)cc1,emission maximum,in ClCCl,442 nm
F[B-]1(F)N2C(=Nc3cccc4cccc2c34)c2cccc[n+]21,emission maximum,in CC#N,413 nm
same,emission maximum,in CO,383 nm
same,emission maximum,in CS(C)=O,498 nm
same,emission maximum,in Cc1ccccc1,384 nm
Oc1c(-c2cccs2)cccc1-c1nc2ccccc2s1,emission maximum,in CCO,585 nm
same,emission maximum,in ClCCl,585 nm
same,emission maximum,in O,587 nm
O=c1c2cc(C#Cc3ccccc3)ccc2nc2ccc(C#Cc3ccccc3)cn12,emission maximum,in ClCCl,478 nm
COc1c2ccccc2c(OC)c2c(C#CC(C)(C)C)c3cc4ccccc4cc3c(C#CC(C)(C)C)c12,emission maximum,in ClCCl,682 nm
Nc1cccc2cccc(N)c12,emission maximum,in CC#N,413 nm
same,emission maximum,in CO,427 nm
same,emission maximum,in CS(C)=O,411 nm
same,emission maximum,in Cc1ccccc1,403 nm
